This is an account of results in patent US20120121508A1, “RADIOLABELED CGRP ANTAGONISTS” (Merck Sharp & Dohme Corp., priority 2009, published 2012).

Values joined by “and” are separate entries in the source; they are usually repeats but may differ in a detail not shown here. Equal entries are not always repeated.

Data set [1] concerns the target T1, human CGRP receptor (CL receptor/RAMP1) (Homo sapiens, UniProt O60894+Q16602).
T1 construct: expressed in transfected cells
Briefly: Recombinant receptor binding assay vs [^125I]CGRP. How it is done: RECOMBINANT RECEPTOR: Human CL receptor (Genbank accession number L76380) was subcloned into the expression vector pIREShyg2 (BD Biosciences Clontech) as a 5′NheI and 3′ PmeI fragment. Human RAMP1 (Genbank accession number AJ001014) was subcloned into the expression vector pIRESpuro2 (BD Biosciences Clontech) as a 5′NheI and 3′NotI fragment. HEK 293 cells (human embryonic kidney cells; ATCC #CRL-1573) were cultured in DMEM with 4.5 g/L glucose, 1 mM sodium pyruvate and 2 mM glutamine supplemented with 10% fetal bovine serum (FBS), 100 units/mL penicillin and 100 μg/mL streptomycin, and maintained at 37° C. and 95% humidity. Cells were subcultured by treatment with 0.25% trypsin with 0.1% EDTA in HBSS. Stable cell line generation was accomplished by co-transfecting 10 μg of DNA with 30 μg Lipofectamine 2000 (Invitrogen) in 75 cm^2 flasks. CL receptor and RAMP1 expression constructs were co-transfected in equal amounts. Twenty-four hours after transfection the cells were diluted and selective medium (growth medium+300 μg/mL hygromycin and 1 μg/mL puromycin) was added the following day. […]
(§1) The octanol/water partition coefficient (Log P) of the compound of Example 1 was determined by partitioning the compound between octanol and phosphate buffer at pH 7.4 and measuring the concentration of the compound in each layer by LC-MS/MS. […]

For data set [2], the target named is T1, human CGRP receptor (CL receptor/RAMP1). Briefly: Recombinant receptor cAMP functional assay. The settings on record: in the presence of 50% human serum. The data set is classed as cell-based. How it is done: RECOMBINANT RECEPTOR: Human CL receptor (Genbank accession number L76380) was subcloned into the expression vector pIREShyg2 (BD Biosciences Clontech) as a 5′NheI and 3′ PmeI fragment. Human RAMP1 (Genbank accession number AJ001014) was subcloned into the expression vector pIRESpuro2 (BD Biosciences Clontech) as a 5′NheI and 3′NotI fragment. HEK 293 cells (human embryonic kidney cells; ATCC #CRL-1573) were cultured in DMEM with 4.5 g/L glucose, 1 mM sodium pyruvate and 2 mM glutamine supplemented with 10% fetal bovine serum (FBS), 100 units/mL penicillin and 100 μg/mL streptomycin, and maintained at 37° C. and 95% humidity. Cells were subcultured by treatment with 0.25% trypsin with 0.1% EDTA in HBSS. […]
RECOMBINANT RECEPTOR FUNCTIONAL ASSAY: Cells were plated in complete growth medium at 85,000 cells/well in 96-well poly-D-lysine coated plates (Corning) and cultured for ˜19 h before assay. […] Dose response curves were plotted and IC50 values determined from a 4-parameter logistic fit as defined by the equation y=((a−d)/(1+(x/c)^b)+d, where y=response, x=dose, a=max response, d=min response, c=inflection point and b=slope.
as §1

Data set [3] addresses adrenomedullin 2 receptor, CLR-RAMP3 (Homo sapiens, UniProt O60896+Q16602). The experiment in a line: Adrenomedullin 2 receptor binding (selectivity). The protocol:
(§2) The octanol/water partition coefficient (Log P) of the compound of Example 1 was determined by partitioning the compound between octanol and phosphate buffer at pH 7.4 and measuring the concentration of the compound in each layer by LC-MS/MS. […] The compound of Example 1 was tested in the receptor binding and functional cell-based assays carried out in the presence and absence of human serum.

Data set [4] concerns the target human AMY1 receptor (CTR/RAMP1) (Homo sapiens, UniProt O60894+P30988). The experiment in a line: Amylin 1 receptor binding. How it is done: (§3) The compound of Example 1 was evaluated against the related amylin 1 (AMY1; CTR/RAMP1) and amylin 3 (AMY3; CTR/RAMP3) receptors. […] Although the compound of Example 1 binds with high affinity to the related AMY1 receptor, this is not anticipated to negatively impact the utility of this molecule as a suitable PET tracer. […] Since the methods used to quantify CGRP receptor occupancy rely primarily on the cerebellar region, the affinity of the compound of Example 1 for AMY1 receptor should not interfere with the use of the PET tracer to accurately determine CGRP receptor occupancy.

Data set [5] deals with T2, human AMY3 receptor (CTR/RAMP3) (Homo sapiens, UniProt O60896+P30988).
T2 sequence (P30988 25-474): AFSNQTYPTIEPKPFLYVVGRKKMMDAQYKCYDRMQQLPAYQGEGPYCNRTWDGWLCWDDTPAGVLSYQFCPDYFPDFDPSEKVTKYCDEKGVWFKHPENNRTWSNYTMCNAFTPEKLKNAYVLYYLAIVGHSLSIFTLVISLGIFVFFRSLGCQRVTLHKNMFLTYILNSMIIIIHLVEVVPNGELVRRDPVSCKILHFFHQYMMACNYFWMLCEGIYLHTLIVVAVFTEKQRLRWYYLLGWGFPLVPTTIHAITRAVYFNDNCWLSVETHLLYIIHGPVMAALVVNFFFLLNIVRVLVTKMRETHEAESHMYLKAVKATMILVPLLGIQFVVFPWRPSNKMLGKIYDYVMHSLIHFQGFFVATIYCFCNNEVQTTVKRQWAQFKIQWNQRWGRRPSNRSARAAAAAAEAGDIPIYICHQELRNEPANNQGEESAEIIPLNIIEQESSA
T2 sequence (O60896 24-148): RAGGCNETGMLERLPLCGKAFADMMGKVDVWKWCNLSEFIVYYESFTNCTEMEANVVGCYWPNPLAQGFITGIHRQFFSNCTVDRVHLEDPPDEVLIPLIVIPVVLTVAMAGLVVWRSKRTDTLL
Briefly: Amylin 3 receptor binding. How it is done: as §3

Data set [6] can be described thus: Octanol/water partition coefficient (Log P). The format is physicochemical. To be noted: octanol / phosphate buffer pH 7.4, LC-MS/MS. How it is done:
as §2

The target in the next data set is T3, human P-glycoprotein (Homo sapiens, UniProt P08183).
T3 construct: expressed in transfected cells; host or cells: LLC-PK1
T3 sequence (P08183 whole entry): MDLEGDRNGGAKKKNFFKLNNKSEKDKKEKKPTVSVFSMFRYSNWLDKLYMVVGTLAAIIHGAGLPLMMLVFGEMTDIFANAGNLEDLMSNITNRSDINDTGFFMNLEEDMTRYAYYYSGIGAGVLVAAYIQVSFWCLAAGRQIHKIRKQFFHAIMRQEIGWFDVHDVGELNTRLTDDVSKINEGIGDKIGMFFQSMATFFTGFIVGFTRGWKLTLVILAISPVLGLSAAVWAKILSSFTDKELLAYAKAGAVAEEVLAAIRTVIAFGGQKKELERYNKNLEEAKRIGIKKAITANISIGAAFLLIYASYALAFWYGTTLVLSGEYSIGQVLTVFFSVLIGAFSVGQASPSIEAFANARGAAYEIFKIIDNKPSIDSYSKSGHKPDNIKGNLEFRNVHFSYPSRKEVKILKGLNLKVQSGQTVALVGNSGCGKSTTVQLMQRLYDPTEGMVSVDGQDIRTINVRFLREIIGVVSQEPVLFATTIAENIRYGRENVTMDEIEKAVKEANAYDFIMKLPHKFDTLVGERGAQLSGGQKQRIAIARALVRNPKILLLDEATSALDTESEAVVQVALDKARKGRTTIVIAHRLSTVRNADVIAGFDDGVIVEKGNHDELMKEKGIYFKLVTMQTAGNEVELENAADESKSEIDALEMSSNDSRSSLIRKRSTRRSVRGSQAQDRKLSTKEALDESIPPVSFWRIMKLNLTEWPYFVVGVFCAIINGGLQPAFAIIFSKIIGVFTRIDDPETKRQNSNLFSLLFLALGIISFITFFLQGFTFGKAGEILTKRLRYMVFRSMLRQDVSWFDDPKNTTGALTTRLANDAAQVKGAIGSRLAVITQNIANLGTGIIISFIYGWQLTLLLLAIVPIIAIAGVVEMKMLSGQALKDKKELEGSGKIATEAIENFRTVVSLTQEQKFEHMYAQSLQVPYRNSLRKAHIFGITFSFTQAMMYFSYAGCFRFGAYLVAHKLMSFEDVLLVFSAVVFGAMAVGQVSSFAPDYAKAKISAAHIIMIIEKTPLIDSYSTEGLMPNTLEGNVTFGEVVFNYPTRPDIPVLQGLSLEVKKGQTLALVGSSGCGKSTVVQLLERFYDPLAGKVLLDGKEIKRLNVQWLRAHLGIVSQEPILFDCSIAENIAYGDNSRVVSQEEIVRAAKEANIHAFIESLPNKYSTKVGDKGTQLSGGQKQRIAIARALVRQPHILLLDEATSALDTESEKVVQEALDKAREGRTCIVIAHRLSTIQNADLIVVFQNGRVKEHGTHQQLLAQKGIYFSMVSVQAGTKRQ
Briefly: Bidirectional transport across LLC-PK1 monolayers, human P-gp. The data set is classed as in vitro ADME. How it is done:
(§4) The bidirectional transport of the compound of Example 1 was evaluated across mono-layers of LLC-PK1 cells over-expressing human P-glycoprotein (Ohe et al., 2003).

The target in data set [7] is T4, human P-glycoprotein (P-gp) (Homo sapiens, UniProt P08183).
T4 construct: expressed in transfected cells; host or cells: LLC-PK1
T4 sequence (P08183 whole entry): as above
The description is as above. The data set is classed as in vitro ADME. The settings on record: LLC-PK1, human P-gp, read-out: B−A/A−B ratio. How it is done: as §4

The next data set deals with rat P-gp. The experiment in a line: Bidirectional transport, rat P-gp. The data set is classed as in vitro ADME. The protocol: [The source words this procedure for another species and reports this species under the same test.] as §4
Data set [8] relates to African green monkey P-gp. Briefly: Bidirectional transport, African green monkey P-gp. The format is in vitro ADME.
Data set [9] is described as follows: Passive permeability (Papp). To be noted: pig, LLC-PK1, read-out: average apparent permeability coefficient (Papp). The data set is classed as in vitro ADME. How it is done:
as §4

The test system of the next data set is CGRP receptor. Briefly: PET CGRP receptor occupancy study in rhesus monkey brain. The data set is classed as in vivo. To be noted: IV bolus plus constant infusion, Hill equation fit, ±SE. The protocol: Baseline PET scans in rhesus monkey have confirmed the uptake and expected regional distribution of the PET tracer of [^11C]-Example 1 in the brain. […] In vivo occupancy studies were carried out with the compound of Example 1 to examine the utility of the PET tracer of [^11C]-Example 1 to establish a drug plasma level/CGRP receptor occupancy relationship. To establish steady plasma levels of drug, the compound of Example 1 was administered as an IV bolus plus constant infusion starting 60 minutes before the PET tracer of [^11C]-Example 1 injection; drug infusion was continued for the duration of the scan. Dynamic PET studies were acquired for 120-min following the PET tracer of [^11C]-Example 1 IV bolus administration. CGRP receptor availability was estimated using data-driven methods to describe the PET tracer of [^11C]-Example 1 plasma-brain kinetics. For each study, the PET tracer of [^11C]-Example 1 plasma concentration was obtained from the measurement of total radioactivity in arterial plasma with correction for the fraction of intact tracer as determined by HPLC analysis.
The absence of a reference region (devoid of CGRP receptor) requires the application of tracer kinetic modeling techniques using the PET tracer of [^11C]-Example 1 arterial plasma concentration in order to accurately quantify CGRP receptor occupancy in rhesus monkey. […]

T1 sequence (Q16602 23-461): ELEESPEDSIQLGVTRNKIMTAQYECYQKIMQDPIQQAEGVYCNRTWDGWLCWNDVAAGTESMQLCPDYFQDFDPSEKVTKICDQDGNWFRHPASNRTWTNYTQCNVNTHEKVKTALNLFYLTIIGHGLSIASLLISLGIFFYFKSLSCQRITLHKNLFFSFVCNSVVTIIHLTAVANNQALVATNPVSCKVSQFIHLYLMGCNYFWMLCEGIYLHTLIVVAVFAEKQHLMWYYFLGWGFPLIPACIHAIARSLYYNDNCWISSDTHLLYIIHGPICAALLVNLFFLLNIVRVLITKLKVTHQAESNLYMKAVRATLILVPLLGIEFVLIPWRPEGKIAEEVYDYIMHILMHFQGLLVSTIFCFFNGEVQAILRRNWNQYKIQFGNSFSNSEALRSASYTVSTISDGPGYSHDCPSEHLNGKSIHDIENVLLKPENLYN
T1 sequence (O60894 27-148): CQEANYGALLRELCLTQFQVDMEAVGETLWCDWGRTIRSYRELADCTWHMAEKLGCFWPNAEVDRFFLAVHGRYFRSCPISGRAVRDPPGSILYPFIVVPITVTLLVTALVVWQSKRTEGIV
human AMY1 receptor (CTR/RAMP1), sequence (O60894 27-148, one chain of several): as the sequence (O60894 27-148) above
adrenomedullin 2 receptor, CLR-RAMP3, sequence (Q16602 23-461, one chain of several): as the sequence (Q16602 23-461) above

The term Ki denotes the equilibrium dissociation constant of an inhibitor or competing ligand from its target. Broadly, the IC50 is the concentration needed to halve the response being measured. By logP is commonly meant a log measure of how a compound divides between an organic and an aqueous phase. As a reminder, the Papp is the rate of passage across a membrane or cell layer, normalised by area and donor concentration. Consider `CN1C[C@@](C)(c2cc(F)cc(F)c2)N(CC(=O)Nc2ccc3c(c2)C[C@@]2(C3)C(=O)Nc3ncccc32)C(=O)C12CCCC2` [Example 1, 2-[(8R)-8-(3,5-Difluorophenyl)-6,8-dimethyl-10-oxo-6,9-diazaspiro[4.5]dec-9-yl]-N-[(2R)-2′-oxo-1,1′,2′,3-tetrahydrospiro[indene-2,3′-pyrrolo[2,3-b]pyridin]-5-yl]acetamide], for which the inhibition constant (Ki) was 0.039 nM in data set [1], 211 nM in data set [3], 0.6 nM in [4] and 212 nM in data set [5]. Moreover, in [2], the IC50 worked out at 0.21 nM. Moreover, in [6], the logP worked out at 3.38. The “P-gp substrate status” value is “not a substrate” at human P-glycoprotein (human P-gp, 5 μM); “weak substrate” at human P-glycoprotein (human P-gp, 1, 0.5 and 0.1 μM); “borderline substrate” in the data set on rat P-gp (5 μM); “weak substrate” in data set [8] (African green monkey P-gp, 1, 0.5 and 0.1 μM). Further, the efflux ratio at 0.1 μM in data set [7] (0.1 μM) worked out at 3.5; in data set [8] (LLC-PK1, African green monkey P-gp, 0.1 μM, read-out: B−A/A−B ratio), 5.4. The efflux ratio at 0.5 μM worked out at 2.9 in [7] (0.5 μM) and 4.1 in data set [8] (LLC-PK1, African green monkey P-gp, 0.5 μM, read-out: B−A/A−B ratio). In addition, the efflux ratio at 1 μM in data set [7] (1 μM) amounted to 3; in data set [8] (LLC-PK1, African green monkey P-gp, 1 μM, read-out: B−A/A−B ratio) it was 3.9. Further, the efflux ratio at 5 μM amounted to 1.7 in [7] (5 μM) and 3.1 with rat P-gp (LLC-PK1, read-out: B−A/A−B ratio). In addition, the Papp in data set [9] is 26 ×10⁻⁶ cm/s. The “Occ50: plasma level for 50% CGRP receptor occupancy” value in the data set on CGRP receptor is ~11 nM and 11 ± 3 nM.
